This note sets out measurements from US20060223792A1, “Phenyl and pyridyl LTA4H modulators” (priority 2005, published 2006).

The assay has as its target T1, recombinant human LTA4 hydrolase (rhLTA4H) (Homo sapiens, UniProt P09960).
T1 construct: made in house; host or cells: Spodoptera frugiperda (Sf-9) cells, baculovirus (pFastBac1)
T1 sequence (P09960 1-611): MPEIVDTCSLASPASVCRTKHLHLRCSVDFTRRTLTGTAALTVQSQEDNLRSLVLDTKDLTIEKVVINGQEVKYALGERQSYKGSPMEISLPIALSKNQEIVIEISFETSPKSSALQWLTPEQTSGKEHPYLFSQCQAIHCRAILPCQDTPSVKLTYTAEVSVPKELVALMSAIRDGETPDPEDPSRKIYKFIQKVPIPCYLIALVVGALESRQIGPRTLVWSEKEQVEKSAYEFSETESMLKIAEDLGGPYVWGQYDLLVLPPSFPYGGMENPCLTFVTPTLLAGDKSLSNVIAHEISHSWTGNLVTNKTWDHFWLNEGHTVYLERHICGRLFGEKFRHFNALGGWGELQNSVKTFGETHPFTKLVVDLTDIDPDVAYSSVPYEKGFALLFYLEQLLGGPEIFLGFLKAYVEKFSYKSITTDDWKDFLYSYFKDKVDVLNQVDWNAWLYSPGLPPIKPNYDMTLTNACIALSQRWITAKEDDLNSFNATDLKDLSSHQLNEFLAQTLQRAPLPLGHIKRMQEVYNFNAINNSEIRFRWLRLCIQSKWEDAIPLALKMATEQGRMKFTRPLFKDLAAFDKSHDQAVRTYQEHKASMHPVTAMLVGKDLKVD
The assay is described as follows: Recombinant human LTA4 hydrolase assay for LTA4 hydrolase inhibitor activity. The class given is biochemical. The settings on record: recombinant human LTA4H, LTB4 quantified by enzyme-linked immunoassay; average of one to three determinations; read-out: IC50. On the procedure: Recombinant Human LTA4 Hydrolase Assay for LTA4 Hydrolase Inhibitor Activity
Compounds of the present invention were tested for LTA4 hydrolase inhibitor activity against recombinant human LTA4 hydrolase (rhLTA4H). Vectors were prepared and used to express rhLTA4H essentially as follows: LTA4 hydrolase encoding DNA was amplified by polymerase chain reaction (PCR) using a human placental cDNA library as a template. Oligonucleotide primers for the PCR reaction were based on the 5′-end, and the complement of the 3′-end, of the published nucleotide sequence for the coding region of the human LTA4 hydrolase gene (C. D. Funk et al., Proc. Natl. Acad. Sci. USA 1987, 84:6677-6681). The amplified […] DNA fragment encoding LTA4 hydrolase was isolated and cloned into the pFastBac1 vector (Invitrogen). Recombinant baculovirus was generated as described by the manufacturer, and used to infect Spodoptera frugiperda (Sf-9) cells. Recombinant LTA4 hydrolase enzyme was purified from the infected Sf-9 cells essentially as described by J. K. Gierse et al. (Protein Expr. Purif. 1993, 4(5):358-366). The purified enzyme solution was adjusted to contain 0.29 mg/mL LTA4 hydrolase, 50 mM Tris (pH 8.0),150 mM NaCl, 5 mM dithiothreitol, 50% glycerol, and EDTA-free Complete protease inhibitor cocktail (Roche). The specific activity of the enzyme was about 3.8 μmol/min/mg.
LTA4 substrate was prepared from the methyl ester of LTA4 (Cayman Chemical) by treatment with 67 equiv. of NaOH under nitrogen at rt for 40 min. The LTA4 substrate in its free acid form was kept frozen at −80° C. until needed. Each compound was diluted to different concentrations in assay buffer (0.1 M potassium phosphate (pH 7.4), 5 mg/mL fatty acid free BSA) containing 10% DMSO. A 25-μL aliquot of each compound dilution was incubated for 10 min at rt with an equal volume of assay buffer containing 36 ng of recombinant human LTA4H. The solution was then adjusted to 200 μL with assay buffer. LTA4 (free acid) was thawed and diluted in assay buffer to a concentration of 357 ng/mL, and 25 μL (9 ng) of LTA4 substrate was added to the reaction mixture (total volume=225 μL) at time zero. Each reaction was carried out at rt for 10 min. The reaction was stopped by diluting 10 μL of the reaction mixture with 200 μL of assay buffer. LTB4 was quantifiedin the diluted sample by a commercially available enzyme-linked immunoassay (Cayman Chemical Co.), as recommended by the manufacturer. Positive controls, under essentially identical conditions but without addition of an inhibitor compound, and negative controls, containing all assay components except enzyme, were routinely run in each experiment. IC50 values were determined by fitting the activity data at different compound concentrations to a 4-parameter equation using the Grafit program (Erithacus software).
The IC50 values presented in the table below should be expected to fall within the typical three-fold variability of assays of this type. The values presented here are, in general, an average of one to three determinations.

On to `O=C(Nc1ccccc1)Oc1ccc(OCCN2CCC(Cc3ccccc3)CC2)cc1` [Example 50, Phenyl-carbamic acid 4-[2-(4-benzyl-piperidin-1-yl)-ethoxy]-phenyl ester], for which the IC50 (as a rule, the concentration at which inhibition is half-maximal) is 21 nM.

As for `O=C(Nc1ccccc1)Oc1ccc(OCCN2CCC(O)CC2)cc1` [Example 53, Phenyl-carbamic acid 4-[2-(4-hydroxy-piperidin-1-yl)-ethoxy]-phenyl ester], the IC50 worked out at 3 nM.

For the molecule `O=C(Nc1ccccc1)Oc1ccc(OCCN2CCC(O)(c3ccc(Cl)c(C(F)(F)F)c3)CC2)cc1` [Example 54, Phenyl-carbamic acid 4-{2-[4-(4-chloro-3-trifluoromethyl-phenyl)-4-hydroxy-piperidin-1-yl]-ethoxy}-phenyl ester], the IC50 came out at 7 nM.

As to `O=C(Nc1ccccc1)Oc1ccc(OCCN2CCCCCC2)cc1` [Example 55, Phenyl-carbamic acid 4-(2-azepan-1-yl-ethoxy)-phenyl ester], the IC50 was determined as 0.5 nM.

For `O=C(Nc1ccccc1)Oc1ccc(OCCN2CCC(O)(c3ccc(Br)cc3)CC2)cc1` [Example 56, Phenyl-carbamic acid 4-{2-[4-(4-bromo-phenyl)-4-hydroxy-piperidin-1-yl]-ethoxy}-phenyl ester], the IC50 is 3 nM.

Regarding `O=C(Nc1ccccc1)Oc1ccc(OCCN2CCC(O)(c3ccc(Cl)cc3)CC2)cc1` [Example 57, Phenyl-carbamic acid 4-{2-[4-(4-chloro-phenyl)-4-hydroxy-piperidin-1-yl]-ethoxy}-phenyl ester], the IC50 came out at 0.3 nM.

On to `O=C(Nc1ccccc1)Oc1ccc(CCN2CCC(O)CC2)cc1` [Example 58, Phenyl-carbamic acid 4-[2-(4-hydroxy-piperidin-1-yl)-ethyl]-phenyl ester], for which the IC50 turned out to be 2 nM.

In the case of `CCN(CCc1ccc(OC(=O)Nc2ccccc2)cc1)C1CCCCC1` [Example 59, Phenyl-carbamic acid 4-[2-(cyclohexyl-ethyl-amino)-ethyl]-phenyl ester], the IC50 was determined as 0.6 nM.

As to `O=C(Nc1ccccc1)Oc1ccc(CCN2CCCC2)cc1` [Example 60, Phenyl-carbamic acid 4-(2-pyrrolidin-1-yl-ethyl)-phenyl ester], the IC50 is 4 nM.

Regarding `O=C(Nc1ccccc1)Oc1ccc(CCN2CCCCCC2)cc1` [Example 61, Phenyl-carbamic acid 4-(2-azepan-1-yl-ethyl)-phenyl ester], the IC50 amounted to 2 nM.

Take `CCCN(CCc1ccc(OC(=O)Nc2ccccc2)cc1)CC1CC1` [Example 62, Phenyl-carbamic acid 4-[2-(cyclopropylmethyl-propyl-amino)-ethyl]-phenyl ester]: the IC50 came out at 4 nM.

Consider `CCCCN(CCCC)CCc1ccc(OC(=O)Nc2ccccc2)cc1` [Example 63, Phenyl-carbamic acid 4-(2-dibutylamino-ethyl)-phenyl ester], for which the IC50 is 0.6 nM.

Consider `O=C(Nc1cccs1)Oc1ccc(OCCN2CCCCC2)cc1` [Example 65, Thiophen-2-yl-carbamic acid 4-(2-piperidin-1-yl-ethoxy)-phenyl ester], for which the IC50 stood at 7 nM.

On to `CCOC(=O)C1CCCCN1C1CCN(CCc2ccc(OCCc3ccccc3)cc2)CC1` (stereo not shown) [Example 66, 1′-[2-(4-Phenethyloxy-phenyl)-ethyl]-[1,4′]bipiperidinyl-2-carboxylic acid ethyl ester], for which the IC50 was determined as 88 nM.

On to `O=C(Oc1ccc(OCCN2CCCCC2)cc1)c1c[nH]c2ccccc12` [Example 68, 1H-Indole-3-carboxylic acid 4-(2-piperidin-1-yl-ethoxy)-phenyl ester], for which the IC50 is 86 nM.

In the case of `Fc1ccccc1CCOc1ccc(OCCN2CCCCC2)cc1` [Example 70, 1-(2-{4-[2-(2-Fluoro-phenyl)-ethoxy]-phenoxy}-ethyl)-piperidine], the IC50 was determined as 100 nM.

Regarding `OC(COc1ccc(OCCN2CCCCC2)cc1)c1ccccc1` (stereo not shown) [Example 71, 1-Phenyl-2-[4-(2-piperidin-1-yl-ethoxy)-phenoxy]-ethanol], the IC50 was 5 nM.

As for `CCN(CCc1ccc(OCC(=O)c2ccccc2)cc1)C1CCCCC1` [Example 72, 2-{4-[2-(Cyclohexyl-ethyl-amino)-ethyl]-phenoxy}-1-phenyl-ethanone], the IC50 came to 10 nM.

As for `CCN(CCc1ccc(OCC(O)c2ccccc2)cc1)C1CCCCC1` (stereo not shown) [Example 73, 2-{4-[2-(Cyclohexyl-ethyl-amino)-ethyl]-phenoxy}-1-phenyl-ethanol], the IC50 amounted to 10 nM.

As to `Oc1ccc(CCOc2ccc(OCCN3CCCCC3)cc2)cc1` [Example 74, 4-{2-[4-(2-Piperidin-1-yl-ethoxy)-phenoxy]-ethyl}-phenol], the IC50 amounted to 50 nM.

For the molecule `COC(=O)C1CCN(CCc2ccc(OCC(=O)c3ccccc3)cc2)CC1` [Example 75, 1-{2-[4-(2-Oxo-2-phenyl-ethoxy)-phenyl]-ethyl}-piperidine-4-carboxylic acid methyl ester], the IC50 was 42 nM.

For `COC(=O)C1CCN(CCc2ccc(OCC(O)c3ccccc3)cc2)CC1` (stereo not shown) [Example 76, 1-{2-[4-(2—hydroxy-2-phenyl-ethoxy)-phenyl]-ethyl}-piperidine-4-carboxylic acid methyl ester], the IC50 turned out to be 3 nM.

Consider `COC(=O)C1CCN(CCc2ccc(OCCc3ccccc3)cc2)CC1` [Example 77, 1-[2-(4-Phenethyloxy-phenyl)-ethyl]-piperidine-4-carboxylic acid methyl ester], for which the IC50 was determined as 6 nM.

With `NC(=O)C1CCN(CCc2ccc(OCC(O)c3ccccc3)cc2)CC1` (stereo not shown) [Example 78, 1-{2-[4-(2-Hydroxy-2-phenyl-ethoxy)-phenyl]-ethyl}-piperidine-4-carboxylic acid amide], the IC50 was 6 nM.

As for `O=C1CCCCN1C1CCN(CCc2ccc(OCCc3ccccc3)cc2)CC1` [Example 80, 1′-[2-(4-Phenethyloxy-phenyl)-ethyl]-[1,4′]bipiperidinyl-2-one], the IC50 turned out to be 11 nM.

For the molecule `O=C1CCCN1C1CCN(CCOc2ccc(OCCc3ccccc3)cc2)CC1` [Example 82, 1-{1-[2-(4-Phenethyloxy-phenoxy)-ethyl]-piperidin-4-yl}-pyrrolidin-2-one], the IC50 worked out at 6 nM.

With `O=C1CN(CCc2ccc(OCCc3ccccc3)cc2)CCN1` [Example 83, 4-[2-(4-Phenethyloxy-phenyl)-ethyl]-piperazin-2-one], the IC50 stood at 100 nM.

Consider `CCOC(=O)CCNCCc1ccc(OCCc2ccccc2)cc1` [Example 84, 3-[2-(4-Phenethyloxy-phenyl)-ethylamino]-propionic acid ethyl ester], for which the IC50 came out at 10 nM.

As to `CCOC(=O)CCN(C)CCc1ccc(OCCc2ccccc2)cc1` [Example 85, 3-{Methyl-[2-(4-phenethyloxy-phenyl)-ethyl]-amino}-propionic acid ethyl ester], the IC50 amounted to 43 nM.

Consider `O=C(O)C1CCN(CCOc2ccc(OCCc3ccccc3)cc2)CC1` [Example 86, 1-[2-(4-Phenethyloxy-phenoxy)-ethyl]-piperidine-4-carboxylic acid], for which the IC50 is 17 nM.

As for `CCOC(=O)CCN(CCc1ccc(OCCc2ccccc2)cc1)C1CCCCC1` [Example 87, 3-{Cyclohexyl-[2-(4-phenethyloxy-phenyl)-ethyl]-amino}-propionic acid ethyl ester], the IC50 is 5 nM.
